# Assay results reported in US20240182513A1, “SEPARATION OF METAL IONS FROM A SAMPLE USING GLYCOLIPIDS” (ARIZONA BOARD OF REGENTS ON BEHALF OF THE UNIVERSITY OF …, priority 2021, published 2024).
# Legend:
# [1] = Example 2.1 rhamnolipid precipitation, filtration, centrifugation: lead; details: for Treatment 2: Rhamnolipid and Filtration Cf / Treatment 3: Rhamnolipid and Centrifugation Cc / Treatment 1: Rhamnolipid Only Cr: lead concentration after treatment
# Procedure: (§1) Structural variants of synthetic glycolipids were used to show the effect of the number and length of the hydrophobic tail(s) on rhamnolipid as a chemical precipitant. […] Solutions (10 mM) were made using nanopure water (≥18 MΩ-cm) then adjusted to a pH of 6.9±0.05 with HNO3 and NaOH. These solutions were made in advance and stored in the cold room for up to one month. They were brought to room temperature before each experiment.
# (§2) Three metals were tested for binding with rhamnolipid. Lead as […] (Fisher Scientific, Waltham, MA, 99% purity), was chosen to represent a metal with high rhamnolipid-metal conditional stability constant; lanthanum as La(NO3)3 6(H2O) (Sigma-Aldrich, St. Louis, MO, 99.99% purity) was chosen as a representative REE; and magnesium as Mg(NO3)2 6(H2O) (Sigma-Aldrich, St. Louis, MO, 99% purity) was chosen to represent a metal with a low rhamnolipid-metal conditional stability constant (Hogan et al., 2017). Metal solutions (5 mM) were made using nanopure water (≥18 MΩ-cm) in 20 ml glass scintillation vials. All solutions were used within 15 min to ensure minimal adsorption to the glass vial.
# (§3) Three glycolipid-based treatments were evaluated to remove metal from solution: (1) the addition of glycolipid with no further treatment (gravitational precipitation), (2) the addition of a glycolipid followed by filtration or (3) the addition of a glycolipid followed by centrifugation. Each metal (Pb, La, and Mg) was evaluated separately with each of the glycolipid structures. For each experiment, a metal solution was mixed with a glycolipid solution in a 1.7 ml reaction tube at varying molar ratios of glycolipid to metal: 0:1 (glycolipid-free control), 2:1, 5:1, and 10:1. The reactions were mixed in the order of nanopure water (≥18 MΩ-cm), glycolipid solution (10 mM), then metal solution (5 mM). The metal and glycolipid solutions were continuously stirred as they were aliquoted into the reaction tubes. The experiment was performed in triplicate.
# (§4) The reaction tubes were mixed overnight (16 to 24 h) and then three samples were collected from each tube to measure the effect of each of the three treatments: a glycolipid only treatment sample, a filtration treatment sample, and a centrifugation treatment sample. Briefly, for the glycolipid only treatment samples all tubes were vortexed for approximately 5 sec immediately before removing 0.1 ml into a dilution tube of 2% trace metal grade nitric acid (12 to 14 ml) to minimize the settling of particles. For the filtration samples each reaction tube was vortexed for 5 sec and then a 0.6 ml aliquot was collected with a 1 ml syringe. A GHP acrodisc disk filter (hydrophilic polypropylene membrane, 0.45 μm pore size, 25 mm disc diameter) from Pall Life Sciences (Port Washington, New York) was then placed onto the end of the syringe and the solution was pushed through the filter. The void space in the disk filter holds approximately 0.5 ml, therefore around 0.1 ml of filtrate was collected into a dilution tube. For the centrifugation sample, the remaining solution was centrifuged at 10,000 RCF for 15 min. Approximately 0.1 ml of the supernatant was aliquoted into a dilution tube. Following collection, all samples were taken for metal analysis using ICP-MS.
# [2] = Example 2.1 rhamnolipid precipitation, filtration, centrifugation: lanthanum; details: for Treatment 2: Rhamnolipid and Filtration Cf / Treatment 3: Rhamnolipid and Centrifugation Cc / Treatment 1: Rhamnolipid Only Cr: lanthanum concentration after treatment
# Procedure: as §1, §2, §3, §4
# [3] = Example 2.1 rhamnolipid precipitation, filtration, centrifugation: magnesium; details: for Treatment 2: Rhamnolipid and Filtration Cf / Treatment 3: Rhamnolipid and Centrifugation Cc / Treatment 1: Rhamnolipid Only Cr: magnesium concentration after treatment; for Treatment 1: Rhamnolipid Only (Rr) efficiency of removal / Treatment 2: Rhamnolipid and Filtration (Rf) efficiency of removal / Treatment 3: Rhamnolipid and Centrifugation (Rc) efficiency of removal: magnesium
# Procedure: as §1, §2, §3, §4
smiles,measurement,setting,value
CCCC(CC(=O)O)OC1O[C@@H](C)[C@H](O)[C@@H](O)[C@H]1O (stereo partly drawn) [Rha C6],Treatment 2: Rhamnolipid and Filtration Cf,[1]; molar ratio 2 to 1,0.115 ± 0.022 mmol/L
same,Treatment 3: Rhamnolipid and Centrifugation Cc,[1]; molar ratio 2 to 1,0.313 ± 0.003 mmol/L
same,Treatment 1: Rhamnolipid Only Cr,[1]; molar ratio 5 to 1,0.329 ± 0.014 mmol/L
same,Treatment 2: Rhamnolipid and Filtration Cf,[1]; molar ratio 5 to 1,0.046 ± 0.017 mmol/L
same,Treatment 3: Rhamnolipid and Centrifugation Cc,[1]; molar ratio 5 to 1,0.322 ± 0.004 mmol/L
same,Treatment 1: Rhamnolipid Only Cr,[1]; molar ratio 10 to 1,0.316 ± 0.008 mmol/L
same,Treatment 2: Rhamnolipid and Filtration Cf,[1]; molar ratio 10 to 1,0.119 ± 0.018 mmol/L
same,Treatment 3: Rhamnolipid and Centrifugation Cc,[1]; molar ratio 10 to 1,0.323 ± 0.005 mmol/L
same,Treatment 1: Rhamnolipid Only Cr,[1]; molar ratio rhamnolipid:lead 2 to 1,0.323 ± 0.005 mmol/L
same,Treatment 2: Rhamnolipid and Filtration (Rf) efficiency of removal,"[1]; lead, molar ratio 2 to 1",(64.0%)
same,Treatment 3: Rhamnolipid and Centrifugation (Rc) efficiency of removal,"[1]; lead, molar ratio 2 to 1",(2.2%)
same,Treatment 2: Rhamnolipid and Filtration (Rf) efficiency of removal,"[1]; lead, molar ratio 5 to 1",(85.8%)
same,Treatment 1: Rhamnolipid Only (Rr) efficiency of removal,"[1]; lead, molar ratio 10 to 1",(1.4%)
same,Treatment 2: Rhamnolipid and Filtration (Rf) efficiency of removal,"[1]; lead, molar ratio 10 to 1",(62.7%)
same,Treatment 2: Rhamnolipid and Filtration Cf,[2]; molar ratio 2 to 1,0.143 ± 0.062 mmol/L
same,Treatment 3: Rhamnolipid and Centrifugation Cc,[2]; molar ratio 2 to 1,0.324 ± 0.018 mmol/L
same,Treatment 1: Rhamnolipid Only Cr,[2]; molar ratio 5 to 1,0.282 ± 0.026 mmol/L
same,Treatment 2: Rhamnolipid and Filtration Cf,[2]; molar ratio 5 to 1,0.106 ± 0.026 mmol/L
same,Treatment 3: Rhamnolipid and Centrifugation Cc,[2]; molar ratio 5 to 1,0.320 ± 0.024 mmol/L
same,Treatment 1: Rhamnolipid Only Cr,[2]; molar ratio 10 to 1,0.332 ± 0.040 mmol/L
same,Treatment 2: Rhamnolipid and Filtration Cf,[2]; molar ratio 10 to 1,0.114 ± 0.064 mmol/L
same,Treatment 3: Rhamnolipid and Centrifugation Cc,[2]; molar ratio 10 to 1,0.294 ± 0.010 mmol/L
same,Treatment 1: Rhamnolipid Only Cr,[2]; molar ratio rhamnolipid:lanthanum 2 to 1,0.325 ± 0.026 mmol/L
same,Treatment 2: Rhamnolipid and Filtration (Rf) efficiency of removal,"[2]; lanthanum, molar ratio 2 to 1",(51.8%)
same,Treatment 1: Rhamnolipid Only (Rr) efficiency of removal,"[2]; lanthanum, molar ratio 5 to 1",(5.2%)
same,Treatment 2: Rhamnolipid and Filtration (Rf) efficiency of removal,"[2]; lanthanum, molar ratio 5 to 1",(64.4%)
same,Treatment 2: Rhamnolipid and Filtration (Rf) efficiency of removal,"[2]; lanthanum, molar ratio 10 to 1",(61.6%)
same,Treatment 3: Rhamnolipid and Centrifugation (Rc) efficiency of removal,"[2]; lanthanum, molar ratio 10 to 1",(1.1%)
same,Treatment 2: Rhamnolipid and Filtration Cf,[3]; molar ratio 2 to 1,0.202 ± 0.016 mmol/L
same,Treatment 3: Rhamnolipid and Centrifugation Cc,[3]; molar ratio 2 to 1,0.265 ± 0.010 mmol/L
same,Treatment 1: Rhamnolipid Only Cr,[3]; molar ratio 5 to 1,0.248 ± 0.013 mmol/L
same,Treatment 2: Rhamnolipid and Filtration Cf,[3]; molar ratio 5 to 1,0.178 ± 0.020 mmol/L
same,Treatment 3: Rhamnolipid and Centrifugation Cc,[3]; molar ratio 5 to 1,0.255 ± 0.001 mmol/L
same,Treatment 1: Rhamnolipid Only Cr,[3]; molar ratio 10 to 1,0.258 ± 0.011 mmol/L
same,Treatment 2: Rhamnolipid and Filtration Cf,[3]; molar ratio 10 to 1,0.165 ± 0.001 mmol/L
same,Treatment 3: Rhamnolipid and Centrifugation Cc,[3]; molar ratio 10 to 1,0.272 ± 0.016 mmol/L
same,Treatment 1: Rhamnolipid Only Cr,[3]; molar ratio rhamnolipid:magnesium 2 to 1,0.247 ± 0.014 mmol/L
same,Treatment 1: Rhamnolipid Only (Rr) efficiency of removal,[3]; molar ratio 2 to 1,(7.6%)
same,Treatment 2: Rhamnolipid and Filtration (Rf) efficiency of removal,[3]; molar ratio 2 to 1,(24.5%)
same,Treatment 3: Rhamnolipid and Centrifugation (Rc) efficiency of removal,[3]; molar ratio 2 to 1,(0.9%)
same,Treatment 1: Rhamnolipid Only (Rr) efficiency of removal,[3]; molar ratio 5 to 1,(7.3%)
same,Treatment 2: Rhamnolipid and Filtration (Rf) efficiency of removal,[3]; molar ratio 5 to 1,(33.4%)
same,Treatment 3: Rhamnolipid and Centrifugation (Rc) efficiency of removal,[3]; molar ratio 5 to 1,(4.9%)
same,Treatment 1: Rhamnolipid Only (Rr) efficiency of removal,[3]; molar ratio 10 to 1,(3.6%)
same,Treatment 2: Rhamnolipid and Filtration (Rf) efficiency of removal,[3]; molar ratio 10 to 1,(38.2%)
